± gives the expanded uncertainty stated by the source.
Settings: 298.15 K, Liquid; for mass density: 101.33 kPa, Pycnometric method; for vapor or sublimation pressure: Manometric method

SMILES	mass density	vapor or sublimation pressure
CC#N [acetonitrile]	776 ± 2 kg/m3	11.81 ± 0.16 kPa
[Hg] [mercury]	13530 ± 30 kg/m3	
CCCCOC(=O)c1ccccc1C(=O)OCCCC [dibutyl phthalate]	1042 ± 2 kg/m3	

Second part, the compound after the results:

mass density	vapor or sublimation pressure	SMILES
1096 ± 3 kg/m3	0.08 ± 0.078 kPa	C[S+](C)[O-] [dimethyl sulfoxide]
1063 ± 2 kg/m3	7.256 ± 0.12 kPa	COC(=O)OC [dimethyl carbonate]
